Experimental data taken from paper PMC7156458, “Synthetic biology based construction of biological activity-related library of fungal decalin-containing diterpenoid pyrones” (Nature Communications, 2020).

What was measured:
[1] = molecular target: Aβ42 (Homo sapiens, UniProt P05067); experiment: LC/Q Tof-MS detection of Aβ42 adducts; type: binding; settings: 1 h incubation at room temperature
Method: To further analyse the inhibitory mechanism, we subjected a mixture of Aβ42 and 21 after 1 h of incubation at room temperature to liquid chromatography/quadrupole time-of-flight mass spectrometry (LC/Q Tof-MS). […] To identify the specific amino acids involved in the interaction of 21 with the Aβ monomer, we performed LC–MS/MS analysis with collision-induced dissociation (CID) using E22P, M35ox-Aβ9-35 as a toxic conformer surrogate[66],[67]. Based on a large number of fragmented b ions and y ions, Lys16 in Aβ42 ([…]) seemed to be one of the target amino acid residues of 21 (Supplementary Fig. 50).
Device; UPLC H-class with Xevo G2-S Qtof (Waters) 3.44e7 […]
in 50% CH3CN containing 0.01%NH4OH, incubated for 1 h at 23 °C […]
Capillary voltage; 3.0 kv 16.07
WT-A!42+ compound 21 1: TOF MS ES+
ْMeasurement conditionٓ 2.25e7
Device; UPLC H-class with Xevo G2-S Qtof (Waters)
Capillary voltage; 3.0 kv
WT-A!42 + compound 21 Mass spectrum […]
Supplementary Fig. 48. Comparison of LC-MS data, a, compound 20 was incubated with wt-Aβ42 and analyzed by LC-MS, whereas no peak originated from their adducts was observed. b, compound 21 was incubated with Aβ42 and analyzed by LC-MS, and their Michael adducts were observed around 9 min. c, ESI mass spectra of the Michael adducts between Aβ42 and compound 21. d, Deconvolution Mass spectrum of a Michael adduct observed at 8.944 min. […]

[2] = tested on: A549; experiment: cells; set-up: JFCR39 human cancer cell line panel, antiproliferative dose response (optical density), GI50; settings: Homo sapiens, A549
Method: (§1) Initially, we evaluated new DDP analogues for their antiproliferative activities across the panel of 39 human cancer cell lines, JFCR39[50],[51]. […] Purified DDPs was dissolved in DMSO (Specially Prepared Reagent, Nuclease and Protease tested, NACALAI, 09659-14) to prepare 5 mM solutions. The Each DDP solution (5 mM) was used for antiproliferative effects on cancer cell lines (Supplementary Notes 23, 24, 25, 26), biological activity against Drosophila (Supplementary Note 27), anti-HIV assay (Supplementary Note 28) and screening of amyloid Ab42 aggregation inhibitors (Supplementary Notes 29).

[3] = tested on: DMS114; experiment: cells; set-up: JFCR39 human cancer cell line panel, antiproliferative dose response (optical density), GI50; settings: Homo sapiens, DMS-114
Method: as §1

[4] = tested on: DMS273; experiment: cells; set-up: JFCR39 human cancer cell line panel, antiproliferative dose response (optical density), GI50; settings: Homo sapiens, DMS-273
Method: as §1

[5] = tested on: DU-145; experiment: cells; set-up: JFCR39 human cancer cell line panel, antiproliferative dose response (optical density), GI50; settings: Homo sapiens, DU-145
Method: as §1

[6] = tested on: HBC-5; experiment: cells; set-up: JFCR39 human cancer cell line panel, antiproliferative dose response (optical density), GI50; settings: HBC5
Method: as §1

[7] = tested on: HCT-116; experiment: cells; set-up: JFCR39 human cancer cell line panel, antiproliferative dose response (optical density), GI50; settings: Homo sapiens, HCT-116
Method: as §1

[8] = tested on: HT-29; experiment: cells; set-up: JFCR39 human cancer cell line panel, antiproliferative dose response (optical density), GI50; settings: Homo sapiens, HT-29
Method: as §1

[9] = tested on: MDA-MB-231; experiment: cells; set-up: JFCR39 human cancer cell line panel, antiproliferative dose response (optical density), GI50; settings: Homo sapiens, MDA-MB-231
Method: as §1

[10] = tested on: MKN-A; experiment: cells; set-up: JFCR39 human cancer cell line panel, antiproliferative dose response (optical density), GI50
Method: as §1

[11] = tested on: MKN74; experiment: cells; set-up: JFCR39 human cancer cell line panel, antiproliferative dose response (optical density), GI50; settings: Homo sapiens, MKN-74
Method: as §1

[12] = tested on: NCI-H226; experiment: cells; set-up: JFCR39 human cancer cell line panel, antiproliferative dose response (optical density), GI50; settings: Homo sapiens, NCI-H226
Method: as §1

[13] = tested on: NCI-H23; experiment: cells; set-up: JFCR39 human cancer cell line panel, antiproliferative dose response (optical density), GI50; settings: Homo sapiens, NCI-H23
Method: as §1

[14] = tested on: OVCAR-3; experiment: cells; set-up: JFCR39 human cancer cell line panel, antiproliferative dose response (optical density), GI50; settings: Homo sapiens, OVCAR-3
Method: as §1

[15] = tested on: OVCAR-4; experiment: cells; set-up: JFCR39 human cancer cell line panel, antiproliferative dose response (optical density), GI50; settings: Homo sapiens, OVCAR-4
Method: as §1

[16] = tested on: PC-3; experiment: cells; set-up: JFCR39 human cancer cell line panel, antiproliferative dose response (optical density), GI50; settings: Homo sapiens, PC-3
Method: as §1

[17] = tested on: RXF-631L; experiment: cells; set-up: JFCR39 human cancer cell line panel, antiproliferative dose response (optical density), GI50; settings: RXF-631L
Method: as §1

[18] = tested on: SF-295; experiment: cells; set-up: JFCR39 human cancer cell line panel, antiproliferative dose response (optical density), GI50; settings: Homo sapiens, SF-295
Method: as §1

[19] = tested on: SF-539; experiment: cells; set-up: JFCR39 human cancer cell line panel, antiproliferative dose response (optical density), GI50; settings: Homo sapiens, SF-539
Method: as §1

[20] = tested on: SK-OV-3; experiment: cells; set-up: JFCR39 human cancer cell line panel, antiproliferative dose response (optical density), GI50; settings: Homo sapiens, SK-OV-3
Method: as §1

[21] = tested on: U251; experiment: cells; set-up: JFCR39 human cancer cell line panel, antiproliferative dose response (optical density), GI50; settings: Homo sapiens, U-251
Method: as §1

Aβ42, sequence (P05067 672-713): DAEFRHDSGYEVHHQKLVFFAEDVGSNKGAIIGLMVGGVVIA

In the case of C=C1CC[C@@H]2[C@](C)(CC[C@H]3O[C@H](C=C(C)C)C[C@@]23C)[C@@H]1Cc1c(OC)oc(CO)c(C(=O)OC)c1=O [Compound 21], the “Aβ42 adduct formation” value [1] is reported as “adducts were detected”.

With C=C1CC[C@@H]2[C@](C)(CC[C@H]3O[C@H](C=C(C)C)C[C@@]23C)[C@@H]1Cc1c(OC)oc(CO)c(C)c1=O [Compound 20] the “Aβ42 adduct formation” value [1] was “no such adduct was found”.

C=C1CCC2C3(C)CC(C=C(C)C)OC3CCC2(C)C1Cc1c(OC)oc(C)c(C)c1=O (stereo not drawn) [Compound 23] was tested, and the GI50 [2] was 10.4 µM, the GI50 [3] was 0.0552 µM and the GI50 [4] was 0.265 µM. It also gave a GI50 [5] of 12.3 µM, a GI50 [6] of 10.7 µM and a GI50 [7] of 0.995 µM. It also gave a GI50 [8] of 10.3 µM, a GI50 [9] of 11.9 µM and a GI50 [10] of 0.318 µM. For the same molecule, the GI50 [11] was 4.22 µM, the GI50 [12] was 10.7 µM and the GI50 [13] was 0.228 µM. It also gave a GI50 [14] of 1.47 µM, a GI50 [15] of 7.04 µM and a GI50 [16] of 10.9 µM. It also gave a GI50 [17] of 10.2 µM, a GI50 [18] of 1.12 µM and a GI50 [19] of 5.57 µM. It also gave a GI50 [20] of 10.8 µM and a GI50 [21] of 13.2 µM.

With C=C1CC[C@H]2[C@]3(C)C[C@H](C=C(C)C)O[C@H]3CC[C@]2(C)[C@@H]1Cc1c(OC)oc(C)c(C)c1=O [Compound 24] the GI50 [2] was 6.88 µM, the GI50 [3] was 0.189 µM and the GI50 [4] was 0.484 µM. The GI50 [5] was 12.2 µM, the GI50 [6] was 10.7 µM and the GI50 [7] was 1.3 µM. The GI50 [8] was 10.1 µM, the GI50 [9] was 11.6 µM and the GI50 [10] was 0.573 µM. The GI50 [11] was 3.72 µM, the GI50 [12] was 10.6 µM and the GI50 [13] was 0.668 µM. The GI50 [14] was 2.68 µM, the GI50 [15] was 6.49 µM and the GI50 [16] was 11.8 µM. The GI50 [17] was 10.9 µM, the GI50 [18] was 2.21 µM and the GI50 [19] was 7.26 µM. For the same molecule, the GI50 [20] was 10.7 µM and the GI50 [21] was 13.5 µM.
